Laboratory results: patent publication US20220348558A1, “INHIBITORS OF ENCEPHALITIC ALPHAVIRUSES” (priority 2019, published 2022)

Legend:
[1] = test system: VEEV TC83; experiment: microbe, parasite or virus in culture; format: cell-based; conditions: Venezuelan equine encephalitis virus, Vero 76, 48 h, read-out: VEEV TC83 EC50 nM
[2] = test system: WEEV California; experiment: microbe, parasite or virus in culture; format: cell-based; conditions: Western equine encephalitis virus, Vero 76, 48 h, read-out: WEEV California EC50 nM

| Compound | EC50 [1] | EC50 [2] |
| --- | --- | --- |
| COc1ccc(-n2c([C@@H]3CCCN3C3CCOCC3)nc3ccc(F)c(F)c3c2=O)cc1 [Example 31, (S)-5,6-difluoro-3-(4-methoxyphenyl)-2-(1-(tetrahydro-2H-pyran-4-yl)pyrrolidin-2-yl) quinazolin-4 (3H)-one] | > 1000 nM | > 1000 nM |
| COc1ccc(-c2cc(C#N)cc3c(=O)n(-c4ccc(OC)c(F)c4)c(C4CCCN4)nc23)cn1 (centres unmarked) [Example 125, 3-(3-fluoro-4-methoxyphenyl)-8-(6-methoxypyridin-3-yl)-4-oxo-2-(pyrrolidin-2-yl)-3,4-dihydroquinazoline-6-carbonitrile] | 1 to 50 nM | 1 to 50 nM |
| O=c1c2cc([N+](=O)[O-])ccc2nc(C2CCCN2)n1-c1ccccc1 (centres unmarked) [Example 1, 6-nitro-3-phenyl-2-(pyrrolidin-2-yl) quinazolin-4 (3H)-one] | 51 to 150 nM | 51 to 150 nM |
| COc1ccc(-n2c([C@H]3C[C@H](O)CN3)nc3c(-c4ccc(C)nc4)cc(C#N)cc3c2=O)cc1F [Example 122, 3-(3-fluoro-4-methoxyphenyl)-2-((2R,4S)-4-hydroxypyrrolidin-2-yl)-8-(6-methylpyridin-3-yl)-4-oxo-3,4-dihydroquinazoline-6-carbonitrile] | 1 to 50 nM | 51 to 150 nM |
| COc1ccc(-n2c([C@H]3CCCN3)nc3c(-c4ccnc(F)c4)cc(C#N)cc3c2=O)cc1F [Example 104, (R)-3-(3-fluoro-4-methoxyphenyl)-8-(2-fluoropyridin-4-yl)-4-oxo-2-(pyrrolidin-2-yl)-3,4-dihydroquinazoline-6-carbonitrile] | 1 to 50 nM | 1 to 50 nM |
| COc1ccc(-n2c(C3CC4CCC3N4)nc3c(-c4ccc(C)nc4)cc(C#N)cc3c2=O)cc1F (centres unmarked) [Example 143, 2-(7-azabicyclo[2.2.1]heptan-2-yl)-3-(3-fluoro-4-methoxyphenyl)-8-(6-methylpyridin-3-yl)-4-oxo-3,4-dihydroquinazoline-6-carbonitrile] | 51 to 150 nM | 151 to 500 nM |
| COc1ccc(-n2c([C@@H]3CCCN3)nc3c(-c4ccncc4)cc([N+](=O)[O-])cc3c2=O)cc1F [Example 84, (S)-3-(3-fluoro-4-methoxyphenyl)-6-nitro-8-(pyridin-4-yl)-2-(pyrrolidin-2-yl) quinazolin-4 (3H)-one] | 1 to 50 nM | 1 to 50 nM |
| COc1c(F)cc(-n2c(C3CCCN3)nc3c(-c4cc(C)nc(C)c4)cc(C#N)cc3c2=O)cc1F (centres unmarked) [Example 159, 3-(3,5-Difluoro-4-methoxyphenyl)-8-(2,6-dimethylpyridin-4-yl)-4-oxo-2-(pyrrolidin-2-yl)-3,4-dihydroquinazoline-6-carbonitrile] | 51 to 150 nM | 51 to 150 nM |
| COc1ccc(-n2c(-c3ccccn3)nc3c(-c4ccc(C)nc4)cc(C#N)cc3c2=O)cc1F [Example 196, 3-(3-fluoro-4-methoxyphenyl)-8-(6-methylpyridin-3-yl)-4-oxo-2-(pyridin-2-yl)-3,4-dihydroquinazoline-6-carbonitrile] | > 1000 nM | > 1000 nM |
| N#Cc1cccc(-n2c([C@H]3CCCN3)nc3ccc([N+](=O)[O-])cc3c2=O)c1 [Example 21, (R)-3-(6-nitro-4-oxo-2-(pyrrolidin-2-yl)quinazolin-3 (4H)-yl)benzonitrile] | > 1000 nM | > 1000 nM |
| COc1ccc(-n2c(C3CCCN3)nc3c(-c4ccc(N5CCCC5)nc4)cc(C#N)cc3c2=O)cc1F (centres unmarked) [Example 127, 3-(3-fluoro-4-methoxyphenyl)-4-oxo-8-(6-(pyrrolidin-1-yl)pyridin-3-yl)-2-(pyrrolidin-2-yl)-3,4-dihydroquinazoline-6-carbonitrile] | 1 to 50 nM | 51 to 150 nM |
| COc1c(F)cc(-n2c(C3C[C@H](F)CN3)nc3c(-c4cc(C)nc(C)c4)cc(C#N)cc3c2=O)cc1F (stereo partly drawn) [Example 160, 3-(3,5-Difluoro-4-methoxyphenyl)-8-(2,6-dimethylpyridin-4-yl)-2-((4S)-4-fluoropyrrolidin-2-yl)-4-oxo-3,4-dihydroquinazoline-6-carbonitrile] | 51 to 150 nM | 51 to 150 nM |
| CN1CCC(N2CCC[C@H]2c2nc3ccc([N+](=O)[O-])cc3c(=O)n2-c2ccccc2)CC1 [Example 7, (S)-2-(1-(1-methylpiperidin-4-yl)pyrrolidin-2-yl)-6-nitro-3-phenylquinazolin-4 (3H)-one] | > 1000 nM | > 1000 nM |
| COc1ccc(-n2c([C@H]3CCCN3)nc3c(-c4ccncc4)cc([N+](=O)[O-])cc3c2=O)cc1F [Example 82, (R)-3-(3-fluoro-4-methoxyphenyl)-6-nitro-8-(pyridin-4-yl)-2-(pyrrolidin-2-yl) quinazolin-4 (3H)-one] | 1 to 50 nM | 1 to 50 nM |
| COc1ccc(-n2c([C@H]3CCCN3)nc3c(-c4ccnc(F)c4)cc([N+](=O)[O-])cc3c2=O)cc1F [Example 90, (R)-3-(3-fluoro-4-methoxyphenyl)-8-(2-fluoropyridin-4-yl)-6-nitro-2-(pyrrolidin-2-yl) quinazolin-4 (3H)-one] | 1 to 50 nM | 1 to 50 nM |
| Cc1cc(-c2cc(C#N)cc3c(=O)n(-c4cc(F)c(NCC5(CO)COC5)c(F)c4)c(C4CCCN4)nc23)cc(C)n1 (centres unmarked) [Example 164, 3-(3,5-difluoro-4-(((3-(hydroxymethyl)oxetan-3-yl)methyl)amino)phenyl)-8-(2,6-dimethylpyridin-4-yl)-4-oxo-2-(pyrrolidin-2-yl)-3,4-dihydroquinazoline-6-carbonitrile] | 501 to 1000 nM | 501 to 1000 nM |
| COc1ccc(-n2c([C@@H]3CCCN3)nc3c(C)cc(C#N)cc3c2=O)cc1 [Example 51, (S)-3-(4-methoxyphenyl)-8-methyl-4-oxo-2-(pyrrolidin-2-yl)-3,4-dihydroquinazoline-6-carbonitrile] | 151 to 500 nM | 501 to 1000 nM |
| COCCOc1ccc(-c2cc(C#N)cc3c(=O)n(-c4ccc(OC)c(F)c4)c(C4CCCN4)nc23)cc1 (centres unmarked) [Example 154, 3-(3-Fluoro-4-methoxyphenyl)-8-(4-(2-methoxyethoxy)phenyl)-4-oxo-2-(pyrrolidin-2-yl)-3,4-dihydroquinazoline-6-carbonitrile] | 1 to 50 nM | 1 to 50 nM |
| COc1ccc(-n2c(C3CCCN3)nc3c(-c4ccc(-c5ccccc5)nc4)cc(C#N)cc3c2=O)cc1F (centres unmarked) [Example 133, 3-(3-fluoro-4-methoxyphenyl)-4-oxo-8-(6-phenylpyridin-3-yl)-2-(pyrrolidin-2-yl)-3,4-dihydroquinazoline-6-carbonitrile] | 1 to 50 nM | 1 to 50 nM |
| COc1ccc(-n2c(C3CCCN3C)nc3c(-c4ccc(C)nc4)cc(C#N)cc3c2=O)cc1F (centres unmarked) [Example 111, 3-(3-fluoro-4-methoxyphenyl)-8-(6-methylpyridin-3-yl)-2-(1-methylpyrrolidin-2-yl)-4-oxo-3,4-dihydroquinazoline-6-carbonitrile] | 1 to 50 nM | 1 to 50 nM |
| COc1ccc(-n2c([C@H]3CCCN3)nc3c(-c4cccnc4)cc([N+](=O)[O-])cc3c2=O)cc1 [Example 85, (R)-3-(4-methoxyphenyl)-6-nitro-8-(pyridin-3-yl)-2-(pyrrolidin-2-yl) quinazolin-4 (3H)-one] | 1 to 50 nM | 1 to 50 nM |
| O=c1c2cc([N+](=O)[O-])ccc2nc([C@H]2CCCN2)n1-c1ccc(Cl)cc1 [Example 23, (R)-3-(4-chlorophenyl)-6-nitro-2-(pyrrolidin-2-yl) quinazolin-4 (3H)-one] | 1 to 50 nM | 1 to 50 nM |
| COc1ccc(-n2c([C@@H]3C[C@@H](F)CN3)nc3c(C)cc([N+](=O)[O-])cc3c2=O)cc1F [Example 64, 2-((2S,4R)-4-fluoropyrrolidin-2-yl)-3-(3-fluoro-4-methoxyphenyl)-8-methyl-6-nitroquin-azolin-4 (3H)-one] | > 1000 nM | > 1000 nM |
| COCCOc1c(F)cc(-n2c(C3CCCN3)nc3c(-c4ccnc(C)c4)cc(C#N)cc3c2=O)cc1F (centres unmarked) [Example 161, 3-(3,5-Difluoro-4-(2-methoxyethoxy)phenyl)-8-(2-methylpyridin-4-yl)-4-oxo-2-(pyrrolidin-2-yl)-3,4-dihydroquinazoline-6-carbonitrile] | 51 to 150 nM | 151 to 500 nM |
| COc1ccc(-n2c([C@H]3CCCN3)nc3c(F)cc(C#N)cc3c2=O)cc1 [Example 78, (R)-8-fluoro-3-(4-methoxyphenyl)-4-oxo-2-(pyrrolidin-2-yl)-3,4-dihydroquinazoline-6-carbonitrile] | 51 to 150 nM | 51 to 150 nM |
| COc1ccc(-n2c([C@H]3CC(F)(F)CN3)nc3c(-c4ccc(C)nc4)cc(C#N)cc3c2=O)cc1F [Example 184, (R)-2-(4,4-difluoropyrrolidin-2-yl)-3-(3-fluoro-4-methoxyphenyl)-8-(6-methylpyridin-3-yl)-4-oxo-3,4-dihydroquinazoline-6-carbonitrile] | 51 to 150 nM | 51 to 150 nM |
| COc1ccc(-c2cc(C#N)cc3c(=O)n(-c4ccc(OC)c(F)c4)c(C4CCCN4)nc23)cc1 (centres unmarked) [Example 147, 3-(3-Fluoro-4-methoxyphenyl)-8-(4-methoxyphenyl)-4-oxo-2-(pyrrolidin-2-yl)-3,4-dihydroquinazoline-6-carbonitrile] | 1 to 50 nM | 1 to 50 nM |
| COc1ccc(-n2c([C@H]3CCCN3)nc3c(-c4cncnc4)cc([N+](=O)[O-])cc3c2=O)cc1 [Example 87, (R)-3-(4-methoxyphenyl)-6-nitro-8-(pyrimidin-5-yl)-2-(pyrrolidin-2-yl) quinazolin-4 (3H)-one] | 1 to 50 nM | 1 to 50 nM |
